Laboratory results reported in ChEMBL document CHEMBL1201862, “PubChem BioAssay data set” (2004).
The source made the active and inactive calls.

Legend:
[1] = inhibitors of SNCA 5'UTR-driven reporter translation, confirmation, H4 neuroglioma cells, luminescence (AID 1988); assay type: functional, cell-based
HEK293 [2] = experiment: cells; conditions: Homo sapiens
[3] = Luminescence Cell-Based Dose Response HTS to Identify Inhibitors of 5'UTR Stem-Loop Driven Prion Protein mRNA Translation in H4 Neuroglioblastoma Cells. [Related pubchem assays: 1827 (Project Summary), 1813 (Primary HTS)]; assay type: functional
[4] = inhibitors of Vif binding to APOBEC3G peptide, primary screen, biochemical, TR-FRET, GST-Vif 1-94, biotin-A3G peptide, dose response retest (AID 1117319); assay type: functional;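 also: TR-FRET signal of purified GST-Vif binding a biotinylated A3G peptide; inhibitors lower the FRET signal by blocking Vif and A3G binding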
HEK293 [5] = experiment: cells; conditions: Homo sapiens; remark: listed apart in the source
[6] = Vero cell cytotoxicity, dose response, cytotoxicity control for Vif-APOBEC3G degradation inhibitor project, Vero cells (AID 1117358); assay type: functional; conditions: Human immunodeficiency virus 1, Vero
[7] = inhibitors of firefly luciferase expression or activity, dose response, H4 neuroglioma cells, luminescence (AID 1990); assay type: functional, cell-based
[8] = target: Voltage-gated inwardly rectifying potassium channel KCNH2 (Homo sapiens, UniProt Q12809); experiment: hERG protection from proarrhythmic block, potency, dose response, cell-based, thallium flux (AID 2121); assay type: ADME
Sequence of Voltage-gated inwardly rectifying potassium channel KCNH2 (Q12809 whole entry): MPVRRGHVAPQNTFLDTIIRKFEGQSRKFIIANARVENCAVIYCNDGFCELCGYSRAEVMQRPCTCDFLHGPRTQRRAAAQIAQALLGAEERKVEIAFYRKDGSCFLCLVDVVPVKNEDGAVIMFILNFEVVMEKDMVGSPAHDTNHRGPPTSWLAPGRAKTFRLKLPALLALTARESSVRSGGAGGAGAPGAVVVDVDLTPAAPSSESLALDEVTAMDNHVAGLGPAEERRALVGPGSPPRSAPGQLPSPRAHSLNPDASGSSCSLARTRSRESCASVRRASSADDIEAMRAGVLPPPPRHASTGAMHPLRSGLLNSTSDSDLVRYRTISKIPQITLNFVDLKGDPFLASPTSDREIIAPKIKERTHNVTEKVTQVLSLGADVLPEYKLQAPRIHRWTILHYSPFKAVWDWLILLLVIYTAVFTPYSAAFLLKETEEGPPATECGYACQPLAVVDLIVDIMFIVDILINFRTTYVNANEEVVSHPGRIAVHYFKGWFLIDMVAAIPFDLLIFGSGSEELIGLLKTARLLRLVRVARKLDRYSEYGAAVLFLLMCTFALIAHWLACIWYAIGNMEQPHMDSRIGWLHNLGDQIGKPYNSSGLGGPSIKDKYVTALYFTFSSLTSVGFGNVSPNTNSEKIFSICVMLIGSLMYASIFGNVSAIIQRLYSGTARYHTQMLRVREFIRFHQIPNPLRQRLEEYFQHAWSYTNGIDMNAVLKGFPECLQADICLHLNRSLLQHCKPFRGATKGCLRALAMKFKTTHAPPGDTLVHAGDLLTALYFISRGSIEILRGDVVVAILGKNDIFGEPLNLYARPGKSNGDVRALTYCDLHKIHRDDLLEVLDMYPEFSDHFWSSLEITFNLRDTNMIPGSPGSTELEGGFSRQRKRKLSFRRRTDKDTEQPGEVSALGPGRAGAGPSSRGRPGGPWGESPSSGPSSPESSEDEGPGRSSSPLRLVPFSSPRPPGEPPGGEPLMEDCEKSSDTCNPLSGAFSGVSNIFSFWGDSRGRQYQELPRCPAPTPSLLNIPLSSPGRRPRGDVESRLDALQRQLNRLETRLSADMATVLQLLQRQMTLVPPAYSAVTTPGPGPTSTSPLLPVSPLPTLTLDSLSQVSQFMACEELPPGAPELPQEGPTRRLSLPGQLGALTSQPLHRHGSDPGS

Hexokinase = target: T1, Hexokinase (Trypanosoma brucei, UniProt Q38C41); experiment: Confirmation assay for inhibitors of Trypanosoma brucei hexokinase 1-Analogue-first series. [Related pubchem assays (depositor defined):AID1430, AID1632, AID2516, AID2560, AID2579, AID2600, AID449725, AID492951]; assay type: functional
T1 sequence (Q38C41 whole entry): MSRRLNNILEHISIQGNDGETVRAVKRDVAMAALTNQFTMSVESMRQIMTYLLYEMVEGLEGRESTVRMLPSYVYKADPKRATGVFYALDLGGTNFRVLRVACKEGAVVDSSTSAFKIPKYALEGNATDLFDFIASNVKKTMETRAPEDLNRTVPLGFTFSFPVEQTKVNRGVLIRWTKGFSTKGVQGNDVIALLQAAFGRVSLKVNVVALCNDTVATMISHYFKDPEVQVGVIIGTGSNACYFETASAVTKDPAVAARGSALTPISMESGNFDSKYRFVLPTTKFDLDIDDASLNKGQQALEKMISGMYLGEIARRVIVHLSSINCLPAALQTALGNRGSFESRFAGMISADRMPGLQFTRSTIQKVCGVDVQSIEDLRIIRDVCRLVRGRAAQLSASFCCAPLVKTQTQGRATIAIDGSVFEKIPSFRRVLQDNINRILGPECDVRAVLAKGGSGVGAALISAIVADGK

[9] = target: Mitogen-activated protein kinase 10 (Homo sapiens, UniProt P53779); experiment: Dose response biochemical screening assay for inhibitors of c-Jun N-Terminal Kinase 3 (JNK3). [Related pubchem assays: 746 ]
Sequence of Mitogen-activated protein kinase 10 (P53779 whole entry, the tested form may be a part): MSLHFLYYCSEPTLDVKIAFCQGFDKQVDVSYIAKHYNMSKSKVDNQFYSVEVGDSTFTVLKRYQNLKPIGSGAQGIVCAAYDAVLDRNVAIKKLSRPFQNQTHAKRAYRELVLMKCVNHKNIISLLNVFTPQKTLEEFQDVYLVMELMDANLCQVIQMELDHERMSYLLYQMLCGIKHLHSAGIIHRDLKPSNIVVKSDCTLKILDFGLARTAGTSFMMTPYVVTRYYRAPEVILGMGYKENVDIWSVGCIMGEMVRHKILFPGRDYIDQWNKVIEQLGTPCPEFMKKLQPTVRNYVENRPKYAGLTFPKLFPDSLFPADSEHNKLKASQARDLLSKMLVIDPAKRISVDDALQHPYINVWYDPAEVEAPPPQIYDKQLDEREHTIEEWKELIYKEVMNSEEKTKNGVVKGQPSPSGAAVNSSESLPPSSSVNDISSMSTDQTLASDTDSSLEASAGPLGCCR

[10] = target: T2, Carboxy-terminal domain RNA polymerase II polypeptide A small phosphatase 1 (Homo sapiens, UniProt Q9GZU7); experiment: inhibitors of CTDSP1, concentration-response testing, biochemical assay, absorbance-based, actives from ultra-high-throughput screening (AID 540297); assay type: functional
T2 sequence (Q9GZU7 whole entry): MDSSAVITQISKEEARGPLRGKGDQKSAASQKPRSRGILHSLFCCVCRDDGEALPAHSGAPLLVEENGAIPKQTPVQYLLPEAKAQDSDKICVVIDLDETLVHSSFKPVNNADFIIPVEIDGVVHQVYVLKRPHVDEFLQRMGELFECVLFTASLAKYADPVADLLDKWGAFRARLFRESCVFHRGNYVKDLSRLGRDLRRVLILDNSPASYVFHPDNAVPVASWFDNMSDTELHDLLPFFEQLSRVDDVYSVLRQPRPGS

Leucine aminopeptidase = target: T3, Leucine aminopeptidase (Plasmodium falciparum 3D7, UniProt Q8IL11); experiment: P. falciparum M17LAP inhibitors, primary screen, biochemical, fluorogenic H-Leu-NHMec substrate, 1536-well (AID 1619); assay type: functional
T3 sequence (Q8IL11 whole entry): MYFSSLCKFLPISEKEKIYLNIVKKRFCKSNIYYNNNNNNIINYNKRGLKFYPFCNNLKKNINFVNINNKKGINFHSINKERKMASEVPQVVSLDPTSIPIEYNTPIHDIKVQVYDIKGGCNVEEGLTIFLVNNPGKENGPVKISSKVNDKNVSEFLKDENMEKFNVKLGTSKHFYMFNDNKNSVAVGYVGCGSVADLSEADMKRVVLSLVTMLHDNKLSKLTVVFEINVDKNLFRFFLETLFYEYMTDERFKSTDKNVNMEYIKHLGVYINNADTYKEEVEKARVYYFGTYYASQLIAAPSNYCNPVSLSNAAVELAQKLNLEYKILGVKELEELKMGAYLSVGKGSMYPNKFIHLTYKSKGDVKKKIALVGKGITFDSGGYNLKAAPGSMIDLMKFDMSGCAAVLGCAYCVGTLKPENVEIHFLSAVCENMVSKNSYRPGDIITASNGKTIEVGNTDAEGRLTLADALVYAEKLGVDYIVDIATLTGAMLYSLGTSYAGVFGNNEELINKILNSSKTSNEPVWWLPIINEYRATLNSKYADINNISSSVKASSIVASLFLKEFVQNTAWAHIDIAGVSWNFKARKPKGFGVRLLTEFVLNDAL

[11] = target: Ubiquitin carboxyl-terminal hydrolase BAP1 (Homo sapiens, UniProt Q92560); experiment: BAP1 deubiquitinase inhibitors, dose response, biochemical (AID 714); assay type: functional
Sequence of Ubiquitin carboxyl-terminal hydrolase BAP1 (Q92560 whole entry): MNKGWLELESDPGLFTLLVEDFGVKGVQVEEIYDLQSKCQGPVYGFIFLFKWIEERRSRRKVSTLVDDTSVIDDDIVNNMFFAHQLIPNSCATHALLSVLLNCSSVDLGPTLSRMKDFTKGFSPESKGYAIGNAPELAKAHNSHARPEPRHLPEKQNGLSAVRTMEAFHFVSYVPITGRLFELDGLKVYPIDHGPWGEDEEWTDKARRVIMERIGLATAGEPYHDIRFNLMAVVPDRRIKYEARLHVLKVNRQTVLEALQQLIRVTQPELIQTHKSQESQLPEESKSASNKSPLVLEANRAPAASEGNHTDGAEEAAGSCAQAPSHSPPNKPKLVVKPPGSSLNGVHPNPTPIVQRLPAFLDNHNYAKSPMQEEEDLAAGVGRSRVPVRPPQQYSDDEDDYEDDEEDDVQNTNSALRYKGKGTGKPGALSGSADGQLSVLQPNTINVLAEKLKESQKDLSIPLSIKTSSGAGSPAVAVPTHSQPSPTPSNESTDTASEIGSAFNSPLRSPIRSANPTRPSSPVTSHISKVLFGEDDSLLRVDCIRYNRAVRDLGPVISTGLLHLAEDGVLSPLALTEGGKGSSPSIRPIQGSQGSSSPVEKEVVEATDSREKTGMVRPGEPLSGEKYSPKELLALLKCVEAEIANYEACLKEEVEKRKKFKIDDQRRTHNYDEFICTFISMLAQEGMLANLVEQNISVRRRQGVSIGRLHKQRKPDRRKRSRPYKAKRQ

Estrogen receptor beta = Estrogen receptor beta (Homo sapiens, UniProt Q92731); experiment: ERβ–SRC-3 coactivator interaction inhibitors, confirmation, orthogonal assay, biochemical, ELISA, streptavidin-HRP readout (AID 1060)
Sequence of Estrogen receptor beta (Q92731 whole entry): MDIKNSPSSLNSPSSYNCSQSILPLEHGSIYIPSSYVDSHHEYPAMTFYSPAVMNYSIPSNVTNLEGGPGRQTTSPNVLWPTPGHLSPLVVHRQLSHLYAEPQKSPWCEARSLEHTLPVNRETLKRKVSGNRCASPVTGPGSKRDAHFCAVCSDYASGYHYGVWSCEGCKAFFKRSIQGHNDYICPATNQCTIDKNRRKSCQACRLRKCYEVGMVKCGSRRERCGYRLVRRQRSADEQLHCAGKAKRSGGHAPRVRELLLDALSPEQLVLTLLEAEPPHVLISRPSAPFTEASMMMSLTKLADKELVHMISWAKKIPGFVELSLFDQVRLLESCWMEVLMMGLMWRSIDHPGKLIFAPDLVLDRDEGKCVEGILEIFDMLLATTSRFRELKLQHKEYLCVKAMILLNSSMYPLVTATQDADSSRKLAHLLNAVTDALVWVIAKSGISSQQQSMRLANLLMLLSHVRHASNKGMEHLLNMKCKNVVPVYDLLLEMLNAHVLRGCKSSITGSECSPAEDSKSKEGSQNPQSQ

Estrogen receptor = Estrogen receptor (Homo sapiens, UniProt P03372);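 also: potency for inhibiting coactivator peptide recruitment to the receptor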
Sequence of Estrogen receptor (P03372 whole entry): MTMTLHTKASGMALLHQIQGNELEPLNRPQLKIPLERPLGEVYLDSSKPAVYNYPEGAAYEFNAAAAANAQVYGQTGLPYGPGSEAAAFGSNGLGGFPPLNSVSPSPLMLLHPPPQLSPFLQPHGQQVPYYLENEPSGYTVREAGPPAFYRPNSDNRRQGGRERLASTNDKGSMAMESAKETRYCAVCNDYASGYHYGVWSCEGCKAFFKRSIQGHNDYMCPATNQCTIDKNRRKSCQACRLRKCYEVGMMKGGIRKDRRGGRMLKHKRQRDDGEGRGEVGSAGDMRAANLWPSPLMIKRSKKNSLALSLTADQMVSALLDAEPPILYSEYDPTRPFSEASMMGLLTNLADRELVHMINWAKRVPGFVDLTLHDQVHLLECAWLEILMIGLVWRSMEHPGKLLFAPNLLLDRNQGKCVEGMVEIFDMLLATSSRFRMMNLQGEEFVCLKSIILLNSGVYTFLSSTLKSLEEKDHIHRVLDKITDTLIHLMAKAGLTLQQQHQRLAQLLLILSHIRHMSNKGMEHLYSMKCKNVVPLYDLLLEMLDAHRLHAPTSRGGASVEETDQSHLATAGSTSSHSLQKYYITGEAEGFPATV

Protein RecA = target: T4, Protein RecA (Mycobacterium tuberculosis, UniProt P9WHJ3); experiment: Fluorescence Cell-Free Homogeneous Dose Retest to Identify Inhibitors of RecA-Intein Splicing Activity. [Related pubchem assays (depositor defined):AID2097, AID2223, AID489010, AID492950]; assay type: functional
T4 sequence (P9WHJ3 whole entry): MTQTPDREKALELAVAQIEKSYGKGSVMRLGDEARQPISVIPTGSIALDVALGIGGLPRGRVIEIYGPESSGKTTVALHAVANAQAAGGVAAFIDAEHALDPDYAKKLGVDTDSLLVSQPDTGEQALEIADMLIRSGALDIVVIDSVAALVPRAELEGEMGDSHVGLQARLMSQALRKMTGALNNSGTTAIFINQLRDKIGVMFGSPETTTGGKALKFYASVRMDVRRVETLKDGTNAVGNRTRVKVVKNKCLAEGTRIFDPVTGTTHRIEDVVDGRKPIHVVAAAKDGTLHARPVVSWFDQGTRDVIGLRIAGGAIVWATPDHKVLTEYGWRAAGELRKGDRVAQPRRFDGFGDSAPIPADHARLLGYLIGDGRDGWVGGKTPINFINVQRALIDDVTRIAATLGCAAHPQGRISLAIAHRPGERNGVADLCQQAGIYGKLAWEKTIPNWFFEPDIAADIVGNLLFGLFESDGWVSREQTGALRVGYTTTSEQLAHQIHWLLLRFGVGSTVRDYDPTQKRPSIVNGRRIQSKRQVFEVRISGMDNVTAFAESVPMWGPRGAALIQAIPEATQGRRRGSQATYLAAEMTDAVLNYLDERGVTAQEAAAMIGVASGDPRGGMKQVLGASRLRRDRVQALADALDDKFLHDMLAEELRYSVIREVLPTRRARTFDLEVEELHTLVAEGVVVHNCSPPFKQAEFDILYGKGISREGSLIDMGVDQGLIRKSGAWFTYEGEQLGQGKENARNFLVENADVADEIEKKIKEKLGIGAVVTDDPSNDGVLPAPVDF

[12] = target: T5, Sphingosine 1-phosphate receptor 2 (Homo sapiens, UniProt O95136); experiment: Dose Response Cell Based Assay for Agonists of the S1P2 Receptor. [Related pubchem assays: 729, 736, 843 ]; assay type: functional
T5 sequence (O95136 whole entry): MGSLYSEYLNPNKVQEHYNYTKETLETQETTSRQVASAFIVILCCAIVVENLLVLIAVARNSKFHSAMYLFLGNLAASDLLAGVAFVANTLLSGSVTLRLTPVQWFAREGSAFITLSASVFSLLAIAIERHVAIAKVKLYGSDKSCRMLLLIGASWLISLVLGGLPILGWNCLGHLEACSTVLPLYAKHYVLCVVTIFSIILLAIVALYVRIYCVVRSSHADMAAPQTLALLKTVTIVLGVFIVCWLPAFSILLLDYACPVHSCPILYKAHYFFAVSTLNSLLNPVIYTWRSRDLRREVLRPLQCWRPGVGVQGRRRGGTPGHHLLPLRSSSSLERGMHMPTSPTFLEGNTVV

[13] = target: Serine/threonine-protein phosphatase (Homo sapiens, UniProt Q9BPW0); experiment: PP5 phosphatase inhibitors, dose response, biochemical, fluorescence (AID 2395)
Sequence of Serine/threonine-protein phosphatase (Q9BPW0 whole entry): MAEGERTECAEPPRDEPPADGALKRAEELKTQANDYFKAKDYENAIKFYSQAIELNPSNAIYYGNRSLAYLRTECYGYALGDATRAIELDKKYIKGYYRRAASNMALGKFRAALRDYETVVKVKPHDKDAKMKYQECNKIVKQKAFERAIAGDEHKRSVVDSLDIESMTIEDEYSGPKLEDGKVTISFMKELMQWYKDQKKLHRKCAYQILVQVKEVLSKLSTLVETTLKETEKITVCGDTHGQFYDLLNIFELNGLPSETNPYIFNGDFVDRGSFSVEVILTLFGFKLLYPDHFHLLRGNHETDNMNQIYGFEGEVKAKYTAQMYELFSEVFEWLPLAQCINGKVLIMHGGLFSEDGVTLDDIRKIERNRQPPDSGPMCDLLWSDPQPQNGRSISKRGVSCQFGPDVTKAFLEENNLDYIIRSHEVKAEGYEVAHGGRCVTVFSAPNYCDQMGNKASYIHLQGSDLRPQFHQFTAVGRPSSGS

[14] = target: Serine/threonine-protein phosphatase PP1-alpha catalytic subunit (Homo sapiens, UniProt P62136); experiment: PP1 phosphatase inhibitors, dose response, biochemical, fluorescence (AID 2394)
Sequence of Serine/threonine-protein phosphatase PP1-alpha catalytic subunit (P62136 whole entry): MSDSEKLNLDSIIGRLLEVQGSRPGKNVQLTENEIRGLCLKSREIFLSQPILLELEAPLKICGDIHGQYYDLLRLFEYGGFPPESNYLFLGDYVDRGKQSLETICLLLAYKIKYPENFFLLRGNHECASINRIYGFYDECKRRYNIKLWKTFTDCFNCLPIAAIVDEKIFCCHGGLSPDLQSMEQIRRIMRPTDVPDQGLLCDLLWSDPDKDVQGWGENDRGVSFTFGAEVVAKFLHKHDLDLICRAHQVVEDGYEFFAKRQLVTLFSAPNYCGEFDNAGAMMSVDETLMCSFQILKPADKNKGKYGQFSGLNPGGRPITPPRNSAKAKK

[15] = growth suppression of beta-catenin-knockout colon cells, dose response, cell-based, HCT116, human colon tumor (AID 1045); assay type: functional;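 also: HCT116 colon tumor cells with beta catenin knocked out; cells exposed to compound for 60 hours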
[16] = growth suppression of PTEN-null colon cells, dose response, cell-based, HCT116 PTEN knockout (AID 1047); assay type: functional;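 also: HCT116 colon tumor cells with PTEN knocked out; cells exposed to compound for 60 hours before readout; potency for loss of cell viability measured by luminescence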
INS1 = experiment: beta cell apoptosis inhibitors, cytokine rescue, dose response, luminescence, retest (AID 449756); assay type: functional, cell-based; conditions: Rattus norvegicus;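 also: cell death triggered by IL-1 beta plus TNF-alpha plus IFN-gamma mixture; protective hits raise ATP signal compared with cytokine alone wells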
[17] = target: T6, COUP transcription factor 2 (Homo sapiens, UniProt P24468); experiment: Luminescence-based cell-based high throughput dose response assay to identify inhibitors of COUP-TFII (NR2F2).; assay type: functional;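 also: HEK293 cells transiently cotransfected with COUP-TFII expression vector and reporter; luciferase reporter luminescence driven by COUP-TFII from the pX2-168 reporter plasmid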
T6 sequence (P24468 whole entry): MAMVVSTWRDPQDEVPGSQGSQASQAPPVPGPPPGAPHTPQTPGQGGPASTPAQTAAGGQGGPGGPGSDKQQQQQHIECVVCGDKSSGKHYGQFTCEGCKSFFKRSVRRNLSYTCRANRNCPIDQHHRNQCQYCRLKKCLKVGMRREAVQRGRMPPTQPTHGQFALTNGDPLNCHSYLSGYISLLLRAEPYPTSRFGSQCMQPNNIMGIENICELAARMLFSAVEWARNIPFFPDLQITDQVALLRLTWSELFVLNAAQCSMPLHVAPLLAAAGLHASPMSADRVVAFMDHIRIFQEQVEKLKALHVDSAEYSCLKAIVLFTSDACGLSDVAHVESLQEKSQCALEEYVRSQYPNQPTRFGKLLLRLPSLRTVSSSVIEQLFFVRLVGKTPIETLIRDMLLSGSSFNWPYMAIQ

[18] = target: T5, Sphingosine 1-phosphate receptor 2; experiment: Dose Response Cell Based Assay for Antagonists of the S1P2 Receptor. [Related pubchem assays: 856, 736 ]; assay type: functional
[19] = THP-1 cell cytotoxicity, dose response, cytotoxicity control for non-replicating M. tuberculosis project (AID 489025); assay type: functional
HEK293 [20] = experiment: inhibitors of LMP1-driven NF-kB reporter, dose response, cell-based, HEK293, luciferase, cherry-pick (AID 588343); assay type: functional; conditions: Homo sapiens
cells = assay type: functional
[21] = Luminescent dose response cell-based high throughput screening assay for inhibitors of the Janus kinase 2 mutant JAK2V617F. [Related pubchem assays: 1446 (Primary screen.), 1521 (Confirmation assay.), 1486 (Counter screen.)]; assay type: functional
[22] = inhibitors of intracellular T. cruzi replication, confirmation, NIH3T3 host cells, beta-gal luminescence (AID 2044); assay type: functional, cell-based;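 also: intracellular parasites grown in NIH/3T3 mouse fibroblasts as host cells; luminescent beta-galactosidase reporter signal from transgenic T. cruzi replicating inside host cells; inhibitors lower the luminescence signal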
[23] = cytotoxicity toward NIH3T3 fibroblasts, dose response, counter-screen, cell-based, ATP luminescence, mouse fibroblasts (AID 2010); assay type: functional;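 also: cells exposed to compound for about 90 hours before reading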
[24] = Vero E6 cell cytotoxicity, dose response, cytotoxicity control for non-replicating M. tuberculosis project, secondary assay (AID 492998); assay type: functional, VeroE6; conditions: Vero C1008
[25] = target: T7, Low molecular weight phosphotyrosine protein phosphatase (Homo sapiens, UniProt P24666); experiment: LMPTP phosphatase inhibitors, dose response, biochemical, OMFP substrate, fluorescence intensity, set 2 (AID 743307); assay type: functional
T7 sequence (P24666 whole entry): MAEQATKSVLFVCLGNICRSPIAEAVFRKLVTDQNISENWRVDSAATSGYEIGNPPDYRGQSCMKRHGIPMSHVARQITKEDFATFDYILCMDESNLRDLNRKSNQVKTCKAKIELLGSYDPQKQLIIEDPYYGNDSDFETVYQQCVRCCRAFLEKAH

[26] = target: T7, Low molecular weight phosphotyrosine protein phosphatase; experiment: LMPTP phosphatase inhibitors, colorimetric pNPP readout, dose response, orthogonal assay, biochemical, absorbance, pNPP substrate, LMPTP-A isoform, set 2 (AID 743308); assay type: functional

SMILES: CC(C)c1nc2sc3c(NCc4ccco4)ncnc3c2c2c1COC(C)(C)C2
- EC50 [1]: > 120 µM (not active)
- EC50 (HEK293 [2]): > 59.6 µM (inactive)
- EC50 [3]: > 120 µM (not active)
- IC50 [4]: > 50 µM (active)
- EC50 (HEK293 [5]): > 59.6 µM (inactive)
- CC50 [6]: > 40 µM (active)
- EC50 [7]: 19.2 µM (active)

SMILES: COc1ccc(C(=O)Nc2ccccc2C(=O)O)cc1Cl
- EC50 [8]: 13 µM (active)
- IC50 (Hexokinase): > 25 µM (inactive)

SMILES: COc1ccc(C2C(C#N)=C(N)SC(N)=C2C#N)cc1OC
- IC50 [9]: > 31 µM (not active)

SMILES: CCOC(=O)c1ccc(NC(=O)CSc2nc(C)cc(=O)[nH]2)cc1
- IC50 [10]: 2.67 µM (active)
- IC50 (Leucine aminopeptidase): 11.8 µM (active)
- IC50 [11]: 23.3 µM (active)
- IC50 (Estrogen receptor beta): < 0.023 µM (not active)
- IC50 (Estrogen receptor): 3.06 µM (active)

SMILES: CC(C)CNC(=O)c1c(N)n(Cc2ccc3c(c2)OCO3)c2nc3ccccc3nc12
- EC50 (Protein RecA): > 380 µM (inconclusive)
- EC50 [12]: 2.61 µM (active)
- IC50 [13]: 17.9 µM (not active)
- IC50 [14]: > 67 µM (not active)
- EC50 [15]: 16.3 µM (active)
- EC50 [16]: 11.9 µM (active)

SMILES: CCOC(=O)N1CCN(C(=O)CSCC(=O)Nc2nc(-c3ccc(-c4ccccc4)cc3)cs2)CC1
- AC50 (INS1): 4.63 µM (active)
- IC50 [17]: 5.66 µM (active)
- IC50 [18]: 2.47 µM (active)

SMILES: COc1ccccc1-c1nnc(Sc2nc([N+](=O)[O-])nn2C)o1
- CC50 [19]: 13.6 µM (active)
- AC50 (HEK293 [20]): 4.37 µM (active)
- IC50 (cells): 1.95 µM (active)
- IC50 [21]: 1.52 µM (active)
- EC50 [22]: 0.556 µM (active)
- EC50 [23]: 17.5 µM (active)
- CC50 [24]: 17.5 µM (active)

SMILES: c1ccc2c(NCCCN3CCCCC3)cc(-c3ccncc3)nc2c1
- IC50 [25]: 2.48 µM (active)
- IC50 [26]: 6.49 µM (active)
